According to US20110124650A1, “STABLE CRYSTALLINE SALTS OF ANTIFOLATE COMPOUNDS” (Chelsea Therapeutics, Inc., priority 2009, published 2011):

Columns and labels:
[1] = Polymorph stress test: water content by Karl Fisher titration after storage; format: physicochemical; conditions: for Water content (Karl Fisher): dipotassium salt
Method: Samples of polymorph Form Ib and polymorph Form II also were analyzed for water content using Karl Fisher titration according to method AM-1-General/water content. A columetric Karl Fisher titrator (DL39, Mettler Toledo) was used with a Stromboli drying oven (Mettler Toledo), a generator electrode, and a standard analytical balance (at least […] accuracy). Instrument conditions were set for an oven temperature of 150° C., a gas flow rate of 100.0 mL/min, and a stirrer speed of 50%. Control parameters were set for a max time of 600 s, a current of 2.0 μA, an end point of 100 mV, and a generation speed set at normal. The samples were tested on the day of synthesis (zero point) and at 1, 2, and 4 weeks storage at ambient conditions (i.e., room temperature and room humidity), at 25° C. (+/−2° C.) and 60% relative humidity (RH) (+/−5% RH), and at 40° C. (+/−2° C.) and 75% RH (+/−5% RH). Test results are provided in Table 10 (Form Ib) and Table 11 (Form II), wherein the values provided are the percent water content.

[2] = Polymorph stress test: purity by HPLC-UV after storage; format: physicochemical; conditions: for Purity by HPLC-UV, average: average over time points
Method: Samples of polymorph Form Ib and polymorph Form II were analyzed for purity by HPLC-UV according to method AM-5-ASP001 performed by gradient liquid chromatography with UV-detection at 237 nm. A Hypersil GOLD column from Thermo Scientific (250×4.6 mm, 5 μm) was used at a temperature of 30° C. A Dionex STH 585 column oven was used with a Dionex P580 gradient pump and a flow rate of 1.0 ml/min (gradient elution). A Dionex Degasys DG-1210 degasser and a Gynkotek Gina 50 autosampler injector were used with an injection volume of 5 μL. A Dionex PDA-100 photodiode array detector was used at a wavelength of 237 nm. Sample runtime was 46 minutes. The samples were tested on the day of synthesis (zero point) and at 1, 2, and 4 weeks storage at ambient conditions (i.e., room temperature and room humidity), at 25° C. (+/−2° C.) and 60% relative humidity (RH) (+/−5% RH), and at 40° C. (+/−2° C.) and 75 RH (+/−5% RH). Test results are provided in Table 8 (Form Ib) and Table 9 (Form II), wherein the values provided are the area %.

[3] = 25° C. (+/−2° C.) and 60% relative humidity (+/−5% RH)
[4] = 1 week storage, ambient conditions
[5] = 2 weeks storage, ambient conditions
[6] = 4 weeks storage, ambient conditions
[7] = 1 week storage, 25° C./60% RH, dipotassium salt
[8] = 1 week storage, 40° C./75% RH, dipotassium salt
[9] = 1 week storage, ambient conditions, dipotassium salt
[10] = 2 weeks storage, 25° C./60% RH, dipotassium salt
[11] = 2 weeks storage, 40° C./75% RH, dipotassium salt
[12] = 2 weeks storage, ambient conditions, dipotassium salt
[13] = 4 weeks storage, 25° C./60% RH, dipotassium salt
[14] = 4 weeks storage, 40° C./75% RH, dipotassium salt
[15] = 25° C./60% RH, dipotassium salt
[16] = 40° C./75% RH, dipotassium salt
[17] = ambient conditions, dipotassium salt
[18] = zero point (day of synthesis), dipotassium salt

| Structure (SMILES) | Water uptake on storage (in words) [1, 3] | Water content (Karl Fisher) ([1]; 1 week storage, 25° C./60% RH) | Water content (Karl Fisher) ([1]; 1 week storage, 40° C./75% RH) | Water content (Karl Fisher) [1, 4] | Water content (Karl Fisher) ([1]; 2 weeks storage, 25° C./60% RH) | Water content (Karl Fisher) ([1]; 2 weeks storage, 40° C./75% RH) | Water content (Karl Fisher) [1, 5] | Water content (Karl Fisher) ([1]; 4 weeks storage, 25° C./60% RH) | Water content (Karl Fisher) ([1]; 4 weeks storage, 40° C./75% RH) | Water content (Karl Fisher) [1, 6] | Water content (Karl Fisher) ([1]; zero point (day of synthesis)) | Purity by HPLC-UV [2, 7] | Purity by HPLC-UV [2, 8] | Purity by HPLC-UV [2, 9] | Purity by HPLC-UV [2, 10] | Purity by HPLC-UV [2, 11] | Purity by HPLC-UV [2, 12] | Purity by HPLC-UV [2, 13] | Purity by HPLC-UV [2, 14] | Purity by HPLC-UV, average [2, 15] | further results |
| --- | --- | --- | --- | --- | --- | --- | --- | --- | --- | --- | --- | --- | --- | --- | --- | --- | --- | --- | --- | --- | --- |
| C=C(C[C@H](NC(=O)c1ccc(CCc2ccc3nc(N)nc(N)c3c2)cc1)C(=O)[O-])C(=O)[O-].[K+].[K+] [Form I, (S)-2-{4-[2-(2,4-diamino-quinazolin-6-yl)-ethyl]-benzoylamino}-4-methylene-pentanedioic acid, dipotassium salt] | no significant water uptake |  |  |  |  |  |  |  |  |  |  |  |  |  |  |  |  |  |  |  |  |
| C=C(C[C@H](NC(=O)c1ccc(CCc2ccc3nc(N)nc(N)c3c2)cc1)C(=O)[O-])C(=O)[O-].[K+].[K+] [Form II, (S)-2-{4-[2-(2,4-diamino-quinazolin-6-yl)-ethyl]-benzoylamino}-4-methylene-pentanedioic acid, dipotassium salt] | no significant water uptake | 17.0% | 21.2% | 18.7% | 16.3% | 24.4% | 21.1% | 16.5% | 26.6% | 21.9% | 15.6% | 96.53 area % | 96.43 area % | 96.42 area % | 96.24 area % | 96.35 area % | 96.49 area % | 96.24 area % | 95.52 area % | 96.44 area % | Storage stability (in words) [1, 3]: stable; Purity by HPLC-UV, average [2, 16]: 96.10 area %; Purity by HPLC-UV, average [2, 17]: 96.49 area %; Purity by HPLC-UV [2, 18]: 96.46 area % |
| C=C(C[C@H](NC(=O)c1ccc(CCc2ccc3nc(N)nc(N)c3c2)cc1)C(=O)[O-])C(=O)[O-].[K+].[K+] [Form Ib, (S)-2-{4-[2-(2,4-diamino-quinazolin-6-yl)-ethyl]-benzoylamino}-4-methylene-pentanedioic acid, dipotassium salt] |  | 16.0% | 19.6% | 16.2% | 15.5% | 22.7% | 16.5% | 16.4% | 26.8% | 18.4% | 14.8% | 95.96 area % | 95.87 area % | 95.87 area % | 95.67 area % | 95.43 area % | 95.78 area % | 95.85 area % | 95.34 area % | 95.83 area % | Purity by HPLC-UV [2, 6]: 95.91 area %; Purity by HPLC-UV, average [2, 16]: 95.55 area %; Purity by HPLC-UV, average [2, 17]: 95.88 area %; Purity by HPLC-UV [2, 18]: 95.94 area % |
